Results taken from patent publication US20120058133A1, “INHIBITION OF TRNA SYNTHETASES AND THERAPEUTIC APPLICATIONS THEREOF” (President and Fellows of Harvard College, priority 2009, published 2012).

Test system: amino acid starvation response pathway
Assay: Amino acid starvation response (eIF2α phosphorylation, ATF4, AAR genes) in T cells
Type: cell-based, mouse
Conditions: for eIF2α phosphorylation and ATF4 expression: 1 μg/ml tunicamycin
Experimental: FIG. 4C is a graph depicting results of quantitative real-time PCR performed on cDNA generated from unstimulated naïve T cells or those activated for 4 hours in the presence of 10 nM MAZ1310 or 10 nM HF. Asns, Gpt2 or eIF4Ebp1 mRNA expression was normalized to Hprt levels and data are presented as mean values ±SD in duplicate samples.
FIG. 4D depicts western blot analysis of purified CD4^+ CD25^− T cells either unstimulated, or TCR-activated without exogenous cytokines in the presence of DMSO, 40 nM MAZ1310 or titrating concentrations of HF (1.25-40 nM). Whole cell lysates were prepared 4 hours-post TCR activation and immunoblotting was performed with the indicated antibodies. ATF4 protein is indicated by arrowhead. NS—non-specific band.
FIG. 4E depicts western blot analysis of purified CD4^+ CD25^− T cells activated through the TCR for the indicated times without exogenous cytokines in the presence of either 10 nM MAZ1310 or 10 nM HF as indicated. Whole cell lysates were prepared during the timecourse and immunoblotting was performed.
FIG. 4F depicts western blot analysis of CD4^+ CD25^− T cells either left unstimulated or were TCR-activated in the absence or presence of the indicated polarizing cytokine conditions and 10 nM MAZ1310 or 10 nM HF as indicated. Whole cell lysates were generated 4 hours after activation and immunoblotting was performed. Microarray data were generated from three independent experiments and all other data are representative of at least two similar experiments.
FIG. 5. […] FIG. 5A depicts western blot and Xbp1 splicing analysis of CD4^+ CD25^− T cells left unstimulated, or activated through the TCR for 4 hours in complete medium (complete—200 μM Cys/100 μM Met), medium lacking Cys/Met (−Cys/Met) or complete medium containing 1 μg/ml tunicamycin, 10 nM HF or 10 nM MAZ1310. Western blotting was performed on whole cell extracts with the indicated antibodies. Xbp-1 splicing assay was performed on cDNA synthesized from T cell cultures.
T cells were activated as described above, collected at the indicated times and pellets were flash-frozen in liquid nitrogen. Total RNA was obtained by RNeasy (Quiagen—Valencia, Calif.) column purification per manufacturers instructions. RORγt expression was determined after reverse transcription using the message sensor kit (Ambion—Austin, Tex.) per the manufacturer's instructions and taqman primers and probe as described elsewhere (Ivanov et al., Cell 126:1121, 2006). Sybrgreen quantitative real-time PCR was performed on T cell RNA samples following reverse transcription via SuperScript II first-strand cDNA synthesis kit (Invitrogen—Carlsbad, Calif.). All PCR data was collected on an iCycler thermal cycler (Biorad—Hercules, Calif.). Primer sequences used for detecting stress response genes are listed below.
Whole cell lysates were generated from T cells activated for the indicated times. For STAT3 and Smad2/3 western blots cells were harvested, washed in PBS and lysed in 50 mM Tris, pH 7.4, 0.1% SDS, 1% Triton-X 100, 140 mM NaCl, 1 mM EDTA, 1 mM EGTA supplemented with protease inhibitors tablets (Roche—Germany), 1 mM NaF and 1 mM Na3VO4. For eIF2α and ATF4 western blots, cells were harvested as above and lysed in 50 mM Tris, pH 7.4, 2% SDS, 20% glycerol and 2 mM EDTA supplemented with protease and phosphatase inhibitors as above. All lysates were cleared via centrifugation and 15-30 μg of protein was resolved by SDS-PAGE. Protein was transferred to nitrocellulose membranes, blocked and blotted using specific antibodies. Antibodies used for western blot analysis were anti-phospho-Smad2, anti-STAT3 (pY705), anti-STAT3, anti-eIF2α^ps51, anti-eIF2α (all from cell signaling technology—Danvers, Mass.). Anti-ATF4/CREB2 and anti-β-actin were purchased from Santa Cruz Biotechnology (Santa Cruz, Calif.). HRP-conjugated secondary antibodies were all purchased from Sigma, with the exception of HRP-conjugated anti-armenian hamster antibody (Jackson Immunoresearch—West Grove, Pa.). […]

[1] = TCR activation 4 hours, 10 nM HF

Row | Compound | time to maximum eIF2α phosphorylation (10 nM HF) | time until which ATF4 protein continued to accumulate (10 nM HF) | ATF4 expression in differentiated and naïve T cells (10 nM HF, 4 hours) | eIF2α phosphorylation in resting naïve T cells and ThN, Th1, Th2, iTreg, Th17 conditions (10 nM HF, 4 hours) | AAR-associated genes (Asns, Gpt2, eIF4Ebp1) by qPCR (10 nM HF, within 4 hours of T cell activation) | effect of added proline on HF-induced eIF2alpha phosphorylation (10 nM halofuginone, 1 mM amino acid) | eif2alpha Ser51 phosphorylation in wild type and GCN2−/− T cells (10 nM, TCR activation 4 hours) | concentration at which eIF2α phosphorylation plateaued (4 hours post TCR activation) | concentration giving detectable eIF2α phosphorylation (4 hours post TCR activation) | concentration with highest ATF4 expression levels (4 hours post TCR activation) | concentrations at which ATF4 expression was reduced (4 hours post TCR activation) | eIF2α phosphorylation and ATF4 expression [1]
1 | O=C(CC1NCCCC1O)Cn1cnc2cc(Br)c(Cl)cc2c1=O (racemic) [HF, halofuginone] | ≤ 2 h | 4 h | induced ATF4 expression in all differentiated T cells, but not in naïve T cells | induced eIF2α phosphorylation | induced | blocked by added proline | leads to phosphorylation of Ser51 of eif2alpha only in wild type cells and not in GCN2^−/− cells | 5 to 10 nM | 2.5 nM | 5 to 10 nM | 20 to 40 nM | inducing eIF2α phosphorylation
2 | tunicamycin | – | – | – | – | – | – | – | – | – | – | – | induced eIF2α phosphorylation and ATF4 expression
